tested on: voltage-dependent calcium channels (cerebral cortex synaptosome); assay: Measurement of voltage-dependent calcium channel activity by the use of a fluorescent pigment (fura 2); assay type: cell-based; conditions: rat cerebral cortex synaptosome, fura 2, KCl stimulation, compound incubated 10 minutes
Experimental: Measurement of Voltage-dependent Calcium Channel Activity by the use of a Fluorescent Pigment (fura 2)
Cerebral cortexes were removed from cut rat brains and disrupted roughly with scissors. These were introduced into a homogenizer, homogenized in 0.3 M saccharose and centrifuged at 4° C. (1,500 g×10 min). The resulting supernatant was further centrifuged at 4° C. (10,000 g×20 min). The resulting precipitates were suspended in 0.3 M saccharose. The suspension was layered on 0.8 M saccharose and centrifuged (10,000 g×30 min.).
4 μM fura 2/AM (Dojin Ltd.) was suspended in solution A to prepare a loading solution. To the synaptosome solution prepared in the method described above was added an equal volume of the loading solution, and the mixture was incubated for 40 minutes at room temperature.
As comparative and control compound, verapamil hydrochloride was used.

| SMILES | IC50 [µM] |
| --- | --- |
| CC(C)C(C#N)(CCCN1CCN(CCNS(=O)(=O)c2ccc(F)cc2)CC1)c1ccccc1 (centres unmarked) [Example 66, 1-[(4-Cyano-5-methyl-4-phenyl)hexyl]-4-[2-(4-fluorobenzenesulfonylamino)ethyl]piperazine] | 8.2 |
| CC(C)C(C#N)(CCCN1CCN(CCS(=O)(=O)Nc2ccc(F)cc2)CC1)c1ccccc1 (centres unmarked) [Example 67, 1-[(4-Cyano-5-methyl-4-phenyl)hexyl]-4-{2-[N-(4-fluorophenyl)sulfamoyl]ethyl}piperazine] | 10 |
| CC(C)C(C#N)(CCCN1CCN(CCN(C)S(=O)(=O)c2ccc(F)cc2)CC1)c1ccccc1 (centres unmarked) [Example 69, 1-[(4-cyano-5-methyl-4-phenyl)hexyl]-4-[2-(N-methyl-4-fluorobenzenesulfonylamino)ethyl]piperazine] | 9.2 |
| CC(C)C(C#N)(CCCN1CCN(CCOC(=O)Sc2ccc(F)cc2)CC1)c1ccccc1 (centres unmarked) [Example 70, 1-[(4-Cyano-5-methyl-4-phenyl)hexyl]-4-{2-[(4-fluorophenylthio)carbonyloxyl]ethyl}piperazine] | 3.8 |
| CC(C)C(C#N)(CCCN1CCN(CCOc2ccccn2)CC1)c1ccccc1 (centres unmarked) [Example 71, 1-[(4-Cyano-5-methyl-4-phenyl)hexyl]-4-[2-(2-pyridyloxy)ethyl]piperazine] | > 16 |
| CC(C)(O)C(C#N)(CCCN1CCN(CCOc2ccc(F)cc2)CC1)c1ccccc1 (centres unmarked) [Example 81, 1-[(4-Cyano-5-hydroxy-5-methyl-4-phenyl)hexyl]-4-[2-(4-fluorophenoxyl)ethyl]piperazine] | > 16 |
| C=C(C)C(C#N)(CCCN1CCN(CCOc2ccc(F)cc2)CC1)c1ccccc1 (centres unmarked) [Example 82, 1-[5-(4-Cyano-5-methyl-4-phenyl)hexenyl]-4-[2-(4-fluorophenoxyl)ethyl]piperazine] | 5 |
| N#CC(F)(CCCN1CCN(CCOc2ccc(F)cc2)CC1)c1ccccc1 (centres unmarked) [Example 85, 1-[(4-Cyano-4-fluoro-4-phenyl)butyl]-4-[2-(4-fluorophenoxy)ethyl]piperazine] | 16 |
| CC(C)N(CCN1CCN(CCCC(C#N)(c2ccccc2)C(C)C)CC1)c1ccccc1 (centres unmarked) [Example 89, 1-[(4-Cyano-5-methyl-4-phenyl)hexyl]-4-[2-(N-isopropylanilino)ethyl]piperazine] | 2.7 |
| CC(C)C(C#N)(CCCN1CCN(CCN(c2ccccc2)C2CCCCC2)CC1)c1ccccc1 (centres unmarked) [Example 90, 1-[(4-Cyano-5-methyl-4-phenyl)hexyl]-4-[2-(N-cyclohexylanilino)ethyl]piperazine] | 2.6 |
| CC(C)c1ccc(N(C)CCN2CCN(CCCC(C#N)(c3ccccc3)C(C)C)CC2)cc1 (centres unmarked) [Example 91, 1-[(4-Cyano-5-methyl-4-phenyl)hexyl]-4-{2-[N-methyl(4-isopropylanilino)ethyl]}piperazine] | 2.1 |
| CC(C)c1cccc(N(C)CCN2CCN(CCCC(C#N)(c3ccccc3)C(C)C)CC2)c1 (centres unmarked) [Example 92, 1-[(4-Cyano-5-methyl-4-phenyl)hexyl]-4-{2-[N-methyl(3-Isopropylanilino)ethyl]}piperazine] | 1.8 |
| CC(CCC(C#N)(c1ccccc1)C(C)C)N1CCN(CCOc2ccc(F)cc2)CC1 (centres unmarked) [Example 97, 1-[{2-(5-Cyano-6-methyl-5-phenyl)heptyl}]-4-[2-(4-fluorophenoxy)ethyl]piperazine] | 3.9 |
| CCCC(CCC(C#N)(c1ccccc1)C(C)C)N1CCN(CCOc2ccc(F)cc2)CC1 (centres unmarked) [Example 98, 1-{[4-(7-Cyano-8-methyl-7-phenyl)nonyl]}-4-[2-(4-fluorophenoxy)ethyl]piperazine] | > 16 |

Further lines, results first:

| IC50 [µM] | SMILES |
| --- | --- |
| 7.4 | CC(C)C(C#N)(CCCN1CCN(CCC(=O)Nc2ccc(F)cc2)CC1)c1ccccc1 (centres unmarked) [Example 63, 1-[(4-Cyano-5-methyl-4-phenyl)hexyl]-4-[2-(4-fluorophenylaminocarbonyl)ethyl]piperazine] |
| > 16 | CC(C)C(C#N)(CCCN1CCN(CC(=O)Nc2ccc(F)cc2)CC1)c1ccccc1 (centres unmarked) [Example 65, 1-[(4-Cyano-5-methyl-4-phenyl)hexyl]-4-[N-(4-fluorophenyl)carbamoylmethyl]piperazine] |
| 8.7 | CC(C)C(C#N)(CCCN1CCN(CCS(=O)(=O)N(C)c2ccc(F)cc2)CC1)c1ccccc1 (centres unmarked) [Example 68, 1-[(4-Cyano-5-methyl-4-phenyl)hexyl]-4-{2-[N-(4-fluorophenyl)-N-methylsulfamoyl]ethyl}piperazine] |
| 13 | CC(C)C(C#N)(CCCN1CCN(CCOc2ccc(F)cc2)CC1)c1ccc(O)cc1 (centres unmarked) [Example 83, 1-[4-Cyano-5-methyl-4-(4-hydroxyphenyl)hexyl]-4-[2-(4-fluorophenoxy)ethyl]piperazine] |
| 6 | CC(C)C(C#N)(CCCN1CCN(CCOc2ccc(F)cc2O)CC1)c1ccccc1 (centres unmarked) [Example 84, 1-[(4-Cyano-5-methyl-4-phenyl)hexyl]-4-[2-(2-hydroxy-4-fluorophenoxy)ethyl]piperazine] |
| 4.3 | CCOC(=O)COc1cc(F)ccc1OCCN1CCN(CCCC(C#N)(c2ccccc2)C(C)C)CC1 (centres unmarked) [Example 86, 1-[(4-Cyano-5-methyl-4-phenyl)hexyl]-4-[2 (2-ethoxycarbonylmethoxy-4-fluorophenoxy)ethyl]piperazine] |
| > 16 | CC(C)C(C#N)(CCCN1CCN(CCOc2ccc(F)cc2OCCO)CC1)c1ccccc1 (centres unmarked) [Example 87, 1-[(4-Cyano-5-methyl-4-phenyl)hexyl]-4-[2-(2-hydroxyethoxy-4-fluorophenoxy)ethyl]piperazine] |
| 4.9 | COc1cc(F)ccc1OCCN1CCN(CCCC(C#N)(c2ccccc2)C(C)C)CC1 (centres unmarked) [Example 88, 1-[(4-Cyano-5-methyl-4-phenyl)hexyl]-4-[2-(2-methoxy-4-fluorophenoxy)ethyl]piperazine] |
| 2.4 | CC(C)c1ccccc1N(C)CCN1CCN(CCCC(C#N)(c2ccccc2)C(C)C)CC1 (centres unmarked) [Example 93, 1-[(4-Cyano-5-methyl-4-phenyl)hexyl]-4-{2-[N-methyl(2-Isopropylanilino)ethyl]}piperazine] |
| 6.1 | CC(C)C(C#N)(CCCN1CCN(CCOc2ccc3c(c2)OCO3)CC1)c1ccccc1 (centres unmarked) [Example 94, 1-[(4-Cyano-5-methyl-4-phenyl)hexyl]-4-{2-[3,4-(methylenedioxy)phenoxy]ethyl}piperazine] |
| 11 | CC(C)C(C#N)(CCCN1CCN(CCOc2ccc3ncccc3c2)CC1)c1ccccc1 (centres unmarked) [Example 95, 1-[(4-Cyano-5-methyl-4-phenyl)hexyl]-4-[2-(6-quinolyloxy)ethyl]piperazine] |
| 5.4 | CC(C)C(C#N)(CCCN1CCN(CCOc2cccc3cnccc23)CC1)c1ccccc1 (centres unmarked) [Example 96, 1-[(4-Cyano-5-methyl-4-phenyl)hexyl]-4-[2-(5-isoquinolyloxy)ethyl]piperazine] |
| > 16 | CC(C)C(C#N)(CCCN1CCN(CCOc2ccncc2)CC1)c1ccccc1 (centres unmarked) [Example 99, 1-[(4-Cyano-5-methyl-4-phenyl)hexyl]-4-[2-(4-pyridyloxy)ethyl]piperazine] |
| > 16 | CC(C)C(C#N)(CCCN1CCN(CCOc2cccnc2)CC1)c1ccccc1 (centres unmarked) [Example 100, 1-[(4-Cyano-5-methyl-4-phenyl)hexyl]-4-[2-(3-pyridyloxy)ethyl]piperazine] |
| 9.2 | CC(C)C(C#N)(CCCN1CCN(CCOc2cccc3ncccc23)CC1)c1ccccc1 (centres unmarked) [Example 101, 1-[(4-Cyano-5-methyl-4-phenyl)hexyl]-4-[2-(5-quinolyloxy)ethyl]piperazine] |

Source: patent US6737425B1, “N,N-substituted cyclic amine derivatives” (Eisai Co., Ltd., priority 1998, dated 2004)
